Measurements as given in patent publication US20260016464A1, “METHOD FOR CHARACTERIZING, TYPING AND IDENTIFYING CELLS AND USE THEREOF” (Yigong Ruixin (Xiamen) Technology Co., Ltd, priority 2023, published 2026).

What was measured:
[1] = system: non-small cell lung cancer cells A549; experiment: Cell viability measured by MTT assay (control method); type: cell-based
Procedure: (§1) Please refer to FIG. 40, FIG. 41 and FIG. 42. FIG. 40 is a schematic diagram of the operation process of the cell viability detection method; FIG. 41 is a comparison diagram of cell viability measured by MTT method and cellular mechanical force measured by the device or system or method of the present invention after A549 cells are treated with different doses of 5FU for 24 h; FIG. 42 is a comparison diagram of cell viability measured by MTT method and cellular mechanical force measured by the device or system or method of the present invention after A549 cells are treated with different doses of 5FU for different times.
(§2) Specifically, in this example, non-small cell lung cancer cells A549 are cultured on multiple cellular mechanical force detection devices, treated with different doses of the cell proliferation inhibitory drug 5-fluorouracil (5-FU), and cellular mechanical force at different time points is monitored by the characterization system for cell/multicellular aggregate interaction described in any one of examples 10 to 12 or the cellular mechanical force detection method described in example 14. Cell proliferation and cytotoxicity at different time points are monitored by CCK-8 kit, and cell viability measured by MTT assay is used as a control group to obtain data in FIGS. 41 and 42.

[2] = system: non-small cell lung cancer cells A549; experiment: Cell viability reflected by cellular mechanical force (cellular mechanical force detection device); type: cell-based
Text: This example specifically provides application of cellular physical information acquired by the characterization system for cell/multicellular aggregate interaction described in any one of examples 10 to 12 or the cellular mechanical force detection method described in example 14 in monitoring cell viability.
as §1, §2

[3] = different doses and times of treatment (FIGS. 41 and 42)

SMILES: O=c1[nH]cc(F)c(=O)[nH]1 [5FU, 5-fluorouracil]
- cell viability measured by the MTT assay [1, 3]: gradually decreasing trend in a dose-dependent manner
- change in cell viability measured by the MTT method ([1]; within 12 h of treatment (FIG. 42)): not obvious
- cell viability reflected by the cellular mechanical force [2, 3]: gradually decreasing trend in a dose-dependent manner
- reduction range of cell viability reflected by mechanical force ([2]; different doses, 24 h, compared with control group DMSO (FIG. 41)): larger than that reflected by the traditional MTT assay
- time at which a significant decreasing trend of cellular mechanical force can be observed ([2]; treatment dose of 0.5 μM (FIG. 42)): 6 h
- time at which a significant decreasing trend of cellular mechanical force can be observed ([2]; treatment dose of 1 μM (FIG. 42)): 3 h
